Results published in publication PMC10934158, “Constituents of Chimaphila japonica and Their Diuretic Activity” (Molecules, 2024).
“And” between values parts separate entries of the source, which are not always exact repeats. Equal values may be shown once. Read-outs that look alike come from different tables or passages of the source. Marks after values point to notes of the source that are not given here.

Legend:
Format in all cases: cell-based
MDCK cells = test: MTT cytotoxicity assay on MDCK cells; settings: 100 µmol/L, 24 h incubation, mean ± SD of three replicates; for inhibition at 100 µM: Canis lupus familiaris, read-out: Growth Inhibition Rate (%)
Protocol: First, we used the MTT method to examine the cytotoxicity of the compounds (1–12) on MDCK cells at a concentration of 100 µmol/L, and the results are shown in Table 5.
Each compound was evaluated for cytotoxicity on DMCK cells using MTT assays. A 96-well plate containing 1 × 10^4 cells per well was seeded with logarithmic growth-phase DMCK cells, which were then cultured for 24 h in a cell culture incubator. After that, the culture medium was changed to one that included medication (100 µmol/L for the treatment groups, 100 µmol/L for the control group, or 100 µmol/L for the positive control group). In total, 100 µL of the appropriate solution was added to each well, and they were then incubated for a further 24 h. After that, culture media were taken out and changed for a DMEM solution that included 20 µL of MTT (5 mg/mL). After incubating for 4 h, the liquid in each well was removed and replaced with 150 µL of DMSO, which was shaken for 10 min to ensure thorough mixing. The absorbance at 490 nm was measured to determine the optical density (OD) of each well. The cell growth inhibition rate was calculated as follows: cell growth inhibition rate (%) = (ODBlank − ODExperimental)/ODBlank × 100%.

[1] = system: Na^+ transport in MDCK cells; test: In vitro diuretic activity assay: Na+ transport across MDCK cells in Transwell chamber; settings: for inhibition at 100 µM: Canis lupus familiaris; for inhibition at 100 µM / Transport Inhibition Rate (%) Na^+: compounds 100 µmol/L, hydrochlorothiazide 200 µmol/L, mean ± SD of three replicates; for Diuretic activity (overall, in words): in vitro Na^+ and Cl^− transport bioassays
Protocol: (§1) Generally, the transport of Na^+ and Cl^− plays an essential role in glomerular filtration and tubular reabsorption.
(§2) Log-phase MDCK cells were seeded in the upper chambers of Transwell plates (4 × 10^4 cells/well), and 800 µL of complete culture medium was added to the lower chambers. After 24 h of incubation at 37 ℃, the electrical resistance of the upper chamber cells was measured one by one (R = (Rcell − Rblank) × 0.04π). When the electrical resistance of the upper chamber cells reached ≥ 300 Ω cm^2, the upper chamber medium was removed and replaced with the drug solution. The blank group (given normal saline), experimental group (1, 4–12, 100 µmol/L), and hydrochlorothiazide group (200 µmol/L) were set, and each well was treated with 200 µL of the corresponding solution. The cells were then further incubated for 24 h. After that, the upper and lower chamber fluids were removed, and 200 µL of NaCl solution (21 mg/mL) was added to the upper chamber, while 800 µL of DMEM was added to the lower chamber for continued incubation. At 1, 2, and 3 h, 50 µL of the lower chamber fluid was taken, and the OD values were measured using Na^+ and Cl^− detection kits. The transport inhibition rate (%) was calculated as follows: transport inhibition rate (%) = (ODblank − ODexperimental)/ODblank × 100%.

[2] = system: Cl^− transport in MDCK cells; test: In vitro diuretic activity assay: Cl− transport across MDCK cells in Transwell chamber; settings: for inhibition at 100 µM: Canis lupus familiaris, read-out: Transport Inhibition Rate (%) Cl^−; for Inhibitory activity on Cl^− transport compared to blank group (in words): 100 µmol/L, significance vs blank group
Protocol: as §1, §2

[3] = MDCK Transwell, read-out: Transport Inhibition Rate (%) Na^+
[4] = MDCK Transwell, compounds 100 µmol/L, hydrochlorothiazide 200 µmol/L, mean ± SD of three replicates
[5] = MDCK, read-out: Transport Inhibition Rate (%) Na^+, MDCK Transwell

Q: With `Cc1cc(O)ccc1O[C@H]1O[C@@H](CO)[C@H](O)[C@@H](O[C@H]2O[C@@H](CO)[C@H](O)[C@@H](O)[C@@H]2O)[C@@H]1O` [Compound 1, 3′-O-β-D-glucopyranosyl-isohomoarbutin] as the molecule, how does the inhibition at 100 µM (MDCK cells) read?
A: 4.89 ± 0.05%

Q: And the inhibition at 100 µM [1, 3]?
A: -11.7 ± 1.14%

Q: And the inhibition at 100 µM [2, 4]?
A: 9.44 ± 0.78%

Q: For `Cc1cc(O)ccc1O[C@H]1O[C@@H](CO)[C@H](O[C@H]2O[C@@H](CO)[C@H](O)[C@@H](O)[C@@H]2O)[C@@H](O)[C@@H]1O` [Compound 2, 4′-O-β-D-glucopyranosyl-isohomoarbutin], which inhibition at 100 µM (MDCK cells) is on record?
A: 29.48 ± 0.12%

Q: For `Cc1cc(O)c(-c2cc(O[C@@H]3O[C@H](CO)[C@@H](O)[C@H](O)[C@H]3O)c(C)cc2O)cc1O[C@@H]1O[C@H](CO)[C@@H](O)[C@H](O)[C@H]1O` [Compound 3, 5-5′-dehydro-di (2-methyl-4-hydroxy-phenyl-1-O-β-D-glucopyranoside)], which inhibition at 100 µM (MDCK cells) is on record?
A: 23.31 ± 0.13%

Q: Which inhibition at 100 µM (MDCK cells) does the source give for `C/C(=C\Cc1c(O)ccc(O[C@H]2O[C@@H](CO)[C@H](O)[C@@H](O)[C@@H]2O)c1C)CO` [Compound 5, 3-[(E)-4-hydroxy-3-methyl-2-butenyl]-4-hydroxy-2-methylphenyl-O-β-D-glucopyranoside] here?
A: 4.08 ± 0.03%

Q: What about the inhibition at 100 µM [1, 3] of the same molecule?
A: 7.61 ± 0.71%

Q: What about the “Inhibitory activity on Cl^− transport compared to blank group (in words)” value [2] of the same molecule?
A: good inhibitory activity

Q: What about the inhibition at 100 µM [2, 4] of the same molecule?
A: 4.57 ± 0.65%

Q: How did the inhibition at 100 µM (MDCK cells) turn out when `Cc1cc(O)ccc1O[C@@H]1O[C@H](CO)[C@@H](O)[C@H](O)[C@H]1O` [Compound 6, isohomoarbutin] was run?
A: < 0%

Q: And the inhibition at 100 µM [1, 3]?
A: 10.2 ± 1.24%

Q: And the inhibition at 100 µM [2, 4]?
A: 12.2 ± 1.33%

Q: With `O=c1c(O)c(-c2ccc(O)c(O)c2)oc2cc(O)cc(O)c12` [Compound 7, quercetin] as the molecule, how does the inhibition at 100 µM (MDCK cells) read?
A: < 0%

Q: And the “Na^+ transport inhibition rate at 1 h” value ([1]; Figure 3)?
A: more than 30.24%

Q: And the inhibition at 100 µM [1, 5]?
A: > 20%

Q: What about the “Transport Inhibition Rate (%) Na^+” value ([1]; MDCK Transwell) of the same molecule?
A: 35.95 ± 1.42 ^e %

Q: What about the “Diuretic activity (overall, in words)” value [1] of the same molecule?
A: potent diuretic activity

Q: What about the inhibition at 100 µM ([2]; MDCK) of the same molecule?
A: 20.7 ± 0.74%

Q: What about the “Cl^− transport inhibition rate at peak, second hour” value ([2]; second hour (peak), Figure 4) of the same molecule?
A: higher than 20%

Q: Which results are given for `C[C@@H]1O[C@@H](Oc2c(-c3ccc(O)c(O)c3)oc3cc(O)cc(O)c3c2=O)[C@H](O)[C@H](O)[C@H]1O` [Compound 8, quercitrin]?
A: inhibition at 100 µM (MDCK cells): < 0%; inhibition at 100 µM [1, 5]: 18.5 ± 1.02%; inhibition at 100 µM ([2]; MDCK): 0.65 ± 1.45%

Q: For `O=c1c(O[C@@H]2O[C@H](CO)[C@@H](O)[C@H](O)[C@H]2O)c(-c2ccc(O)c(O)c2)oc2cc(O)cc(O)c12` [Compound 9, isoquercitrin], which inhibition at 100 µM (MDCK cells) is on record?
A: < 0%

Q: What about the inhibition at 100 µM [1, 5] of the same molecule?
A: 6.22 ± 0.53%

Q: And the inhibition at 100 µM ([2]; MDCK)?
A: -8.36 ± 2.6%

Q: Which inhibition at 100 µM (MDCK cells) does the source give for `O=c1c(O[C@@H]2O[C@H](CO)[C@H](O)[C@H](O)[C@H]2O)c(-c2ccc(O)c(O)c2)oc2cc(O)cc(O)c12` [Compound 10, hyperoside] here?
A: < 0%

Q: What about the inhibition at 100 µM [1, 5] of the same molecule?
A: 1.82 ± 0.81%

Q: What about the inhibition at 100 µM ([2]; MDCK) of the same molecule?
A: -13.2 ± 1.89%

Q: Which inhibition at 100 µM (MDCK cells) does the source give for `O=c1c(O)c(-c2ccc(O)cc2)oc2cc(O)cc(O)c12` [Compound 11, kaempferol] here?
A: < 0%

Q: And the “Na^+ transport suppression rate at 3 h compared with hydrochlorothiazide (in words)” value ([1]; 3 h, Figure 3)?
A: exceeds that of hydrochlorothiazide

Q: What about the inhibition at 100 µM [1, 5] of the same molecule?
A: > 20%

Q: And the “Transport Inhibition Rate (%) Na^+” value ([1]; MDCK Transwell)?
A: 28.81± 1.04 ^e %

Q: And the “Diuretic activity (overall, in words)” value [1]?
A: potent diuretic activity

Q: And the inhibition at 100 µM ([2]; MDCK)?
A: 27.7 ± 1.18%

Q: With `O=c1c(O[C@@H]2O[C@@H](CO)[C@H](O)[C@H]2O)c(-c2ccc(O)cc2)oc2cc(O)cc(O)c12` [Compound 12, juglanin] as the molecule, how does the inhibition at 100 µM (MDCK cells) read?
A: < 0%

Q: What about the inhibition at 100 µM [1, 5] of the same molecule?
A: 14.2 ± 0.69%

Q: And the “Inhibitory activity on Cl^− transport compared to blank group (in words)” value [2]?
A: general inhibitory activity

Q: And the inhibition at 100 µM ([2]; MDCK)?
A: 3.27 ± 0.31%

Q: What does the source list for `NS(=O)(=O)c1cc2c(cc1Cl)NCNS2(=O)=O` [Hyd, hydrochlorothiazide, reference compound]?
A: inhibition at 100 µM (MDCK cells): < 0%; Na^+ transport inhibition rate at 1 h ([1]; Figure 3): 27.91%; Transport Inhibition Rate (%) Na^+ ([1]; MDCK Transwell): 39.74 ± 0.64 ^e %; Transport Inhibition Rate (%) Cl^− [2, 4]: 23.42 ± 0.87 ^e %

Q: “(1R,3R,4R)-3-methylcyclohexanol β-D-glucopyranoside [Compound 4]” was tested. Which “Growth Inhibition Rate (%)” value (MDCK cells) did it give?
A: 4.89 ± 0.05%

Q: What about the “Transport Inhibition Rate (%) Na^+” value ([1]; MDCK Transwell) of the same molecule?
A: higher than 20% and 21.13 ± 0.89 ^e %

Q: And the “Diuretic activity (overall, in words)” value [1]?
A: potent diuretic activity

Q: What about the “Transport Inhibition Rate (%) Cl^−” value [2, 4] of the same molecule?
A: 12.23 ± 0.18 ^e %
